Like-named read-outs stand apart in the source and are kept apart here.

The conditions of this data set: triazole bond.
The mark [1] stands for this setting: the molecule shown is the open-chain precursor, 17-membered ring, CuSO4/ascorbic acid, H2O/tBuOH 2:1, 0.08 mM, 25.0 °C.

For the substance “H-Gly-Gly-Phe-Nva(δN3)-Thr-Pro-Prg-Thr-OH?”, the ring closure, yield after HPLC under setting [1] came to 36%.

Take “H-Gly-Gly-Phe-Tyr-Nva(δN3)-Pro-Prg-Thr-OH?”: the ring closure, yield after HPLC (the molecule shown is the open-chain precursor, 14-membered ring, CuSO4/ascorbic acid, H2O/tBuOH 2:1, 0.08 mM, 25.0 °C) stood at 52%.

Under setting [1], “H-Gly-Phe-Phe-Nva(δN3)-Thr-Pro-Prg-Thr-OH” yielded a ring closure, yield after HPLC of 40%.

Under setting [1], “H-Gly-Phe-Phe-Prg-Thr-Pro-Nva(δN3)-Thr-OH?” came in with a ring closure, yield after HPLC of 45%.

“H-Gly-Phe-Phe-Tyr-Nva(δN3)-Pro-Prg-Thr-OH?”: the ring closure, yield after HPLC (the molecule shown is the open-chain precursor, 14-membered ring, CuSO4/ascorbic acid, H2O/tBuOH 2:1, 25.0 °C) stood at 37%.

With “cyclo[GB23-G-F-(NMe)A-Nva(δN3)-P-Prg-TB30]”, the ring closure, yield after HPLC (14-membered ring, Cu(I)/TBTA) was 49%.
